Source: patent US20250197407A1 (Jazz Pharmaceuticals Ireland Limited, priority 2022, published 2025)

Molecular target: SOS1/KRAS WT (Homo sapiens (Human), UniProt Q07889)
Experiment: SOS1/KRAS WT HTRF binding assay (FRET-based protein-protein interaction)
Settings: inhibition of His6-SOS1 (aa564-1049, 40 nM) binding to GST-KRAS-WT (aa1-188, 40 nM), at least two independent replicates; for IC50: read-out: SOS1/KRAS WT HTRF Binding assay pIC50 (converted)
Method in brief: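 GST-KRAS WT (aa1-188, 40 nM) and His6-SOS1 exchange domain (aa564-1049, 40 nM) were incubated 60 min at room temperature with compound dose response in HEPES pH7.3 buffer with 10 mM EDTA and 100 mM KF. Anti-GST-Eu(K)/anti-6His-XL665 HTRF was read after 4 hr, and IC50 came from a four-parameter fit (≥2 replicates).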

Chain of SOS1/KRAS WT (Q07889 564-1049): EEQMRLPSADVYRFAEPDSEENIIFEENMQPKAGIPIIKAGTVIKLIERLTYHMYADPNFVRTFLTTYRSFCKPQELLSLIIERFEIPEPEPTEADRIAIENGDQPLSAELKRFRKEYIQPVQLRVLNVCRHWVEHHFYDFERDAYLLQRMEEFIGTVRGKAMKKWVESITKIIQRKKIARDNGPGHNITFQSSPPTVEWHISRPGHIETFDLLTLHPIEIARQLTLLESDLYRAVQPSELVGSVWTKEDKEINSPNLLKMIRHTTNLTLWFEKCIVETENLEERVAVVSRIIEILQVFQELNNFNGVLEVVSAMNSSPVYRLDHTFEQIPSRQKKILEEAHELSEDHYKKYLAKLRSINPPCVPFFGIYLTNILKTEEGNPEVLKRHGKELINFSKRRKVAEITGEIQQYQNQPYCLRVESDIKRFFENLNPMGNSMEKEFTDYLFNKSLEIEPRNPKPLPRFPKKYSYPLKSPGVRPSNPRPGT

`Cc1nnc(N[C@H](C)c2cccc(C(F)(F)CO)c2)c2cc3c(cc12)n(C)c(=O)n3C(C)(C)C` [Compound 80, 3-tert-butyl-1,8-dimethyl-5-[[(1R)-1-[3-(1,1-difluoro-2-hydroxy-ethyl)phenyl]ethyl]amino]imidazo [4,5-g]phthalazin-2-one] gave an IC50 of 6.17 nM.
With `Cc1nnc(N[C@H](C)c2cccc(C(F)(F)C(C)(C)O)c2)c2cc3c(cc12)C(C)(C)C(=O)N3C(C)C` [Compound 81, 1-isopropyl-3,3,5-trimethyl-8-[[(1R)-1-[3-(1,1-difluoro-2-hydroxy-2-methyl-propyl)phenyl]ethyl]amino]pyrrol o[2,3-g]phthalazin-2-one] the IC50 was 8.51 nM.
In the case of `Cc1nnc(N[C@H](C)c2cccc(C(F)(F)CO)c2)c2cc3c(cc12)C(C)(C)C(=O)N3C(C)C` [Compound 82, 1-isopropyl-3,3,5-trimethyl-8-[[(1R)-1-[3-(1,1-difluoro-2-hydroxy-ethyl)phenyl]ethyl]amino]pyrrolo [2,3-g]phthalazin-2-one], the IC50 is reported as 9.33 nM.
`Cc1nnc(N[C@H](C)c2cccc(C(F)(F)C(C)(C)O)c2)c2cc3c(cc12)n(C)c(=O)n3C1(C)CC1` [Compound 83, 1,8-dimethyl-3-(1-methylcyclopropyl)-5-[[(1R)-1-[3-(1,1-difluoro-2-hydroxy-2-methyl-propyl)phenyl]ethyl]amino]imidazo [4,5-g]phthalazin-2-one] showed an IC50 of 7.94 nM.
Compound `Cc1nnc(N[C@H](C)c2cccc(C(F)(F)C(C)(C)O)c2)c2cc3c(cc12)C1(CCOCC1)C(=O)N3C` [Compound 84, 1,5-dimethyl-8-[[(1R)-1-[3-(1,1-difluoro-2-hydroxy-2-methyl-propyl)phenyl]ethyl]amino]spiro [pyrrolo[2,3-g]phthalazine-3,4′-tetrahydropyran]-2-one] has an IC50 of 8.91 nM.
For `Cc1c([C@@H](C)Nc2nnc(C)c3cc4c(cc23)n(C(C)C)c(=O)n4C)cccc1C(F)(F)CO` [Compound 85, 3-isopropyl-1,8-dimethyl-5-[[(1R)-1-[3-(1,1-difluoro-2-hydroxy-ethyl)-2-methyl-phenyl]ethyl]amino]imidazo[4,5-g]phthalazin-2-one], the IC50 was 8.32 nM.
Work on `COCC1(C)C(=O)N(C)c2cc3c(N[C@H](C)c4cccc(C(F)(F)C(C)(C)O)c4F)nnc(C)c3cc21` (stereo partly drawn) [Compound 86, D8-[[(1R)-1-[3-(1,1-difluoro-2-hydroxy-2-methyl-propyl)-2-fluoro-phenyl]ethyl]amino]-3-(methoxymethyl)-1,3,5-trimethyl-pyrrolo[3,2-g]phthalazin-2-one] yielded an IC50 of 10.2 nM.
`Cc1nnc(N[C@H](C)c2cccc(C(F)(F)C(C)(C)O)c2)c2cc3c(cc12)n(C)c(=O)n3C(C)C` [Compound 87, 3-isopropyl-1,8-dimethyl-5-[[(1R)-1-[3-(1,1-difluoro-2-hydroxy-2-methyl-propyl)phenyl]ethyl]amino]imidazo [4,5-g]phthalazin-2-one] gave an IC50 of 8.51 nM.
In the case of `Cc1nnc(N[C@H](C)c2cccc(C(F)(F)CO)c2)c2cc3c(cc12)C1(CCOCC1)C(=O)N3C` [Compound 88, 1,5-dimethyl-8-[[(1R)-1-[3-(1,1-difluoro-2-hydroxy-ethyl)phenyl]ethyl]amino]spiro [pyrrolo[2,3-g]phthalazine-3,4′-tetrahydropyran]-2-one], the IC50 is reported as 7.76 nM.
In the case of `Cc1nnc(N[C@H](C)c2cccc(C(F)(F)CO)c2F)c2cc3c(cc12)C1(CCOCC1)C(=O)N3C` [Compound 89, 1,5-dimethyl-8-[[(1R)-1-[3-(1,1-difluoro-2-hydroxy-ethyl)-2-fluoro-phenyl]ethyl]amino]spiro[pyrrolo [2,3-g]phthalazine-3,4′-tetrahydropyran]-2-one], the IC50 is reported as 8.13 nM.
Compound `COC1(C)C(=O)N(C)c2cc3c(N[C@H](C)c4cccc(C(F)(F)C(C)(C)O)c4)nnc(C)c3cc21` (stereo partly drawn) [Compound 90, 3-methoxy-1,3,5-trimethyl-8-[[(1R)-1-[3-(1,1-difluoro-2-hydroxy-2-methyl-propyl)phenyl]ethyl]amino]pyrrolo [2,3-g]phthalazin-2-one] has an IC50 of 10.7 nM.
With `COCC1(C)C(=O)N(C)c2cc3c(N[C@H](C)c4cccc(C(F)(F)C(C)(C)O)c4)nnc(C)c3cc21` (stereo partly drawn) [Compound 91, D8-[[(1R)-1-[3-(1,1-difluoro-2-hydroxy-2-methyl-propyl)phenyl]ethyl]amino]-3-(methoxymethyl)-1,3,5-trimethyl-pyrrolo[3,2-g]phthalazin-2-one] the “SOS1/KRAS WT HTRF Binding assay pIC50” value was 7.75.
Work on `COC1(C)C(=O)N(C)c2cc3c(N[C@H](C)c4cccc(C(F)(F)CO)c4C)nnc(C)c3cc21` (stereo partly shown) [Compound 92] yielded an IC50 of 9.77 nM.
With `COC1(C)C(=O)N(C)c2cc3c(N[C@H](C)c4cccc(C(F)(F)CO)c4F)nnc(C)c3cc21` (stereo partly drawn) [Compound 93, 3-methoxy-1,3,5-trimethyl-8-[[(1R)-1-[3-(1,1-difluoro-2-hydroxy-ethyl)-2-fluoro-phenyl]ethyl]amino]pyrrolo[2,3-g]phthalazin-2-one] the IC50 was 7.41 nM.
`COCC1(C)C(=O)N(C)c2cc3c(N[C@H](C)c4cccc(C(F)(F)CO)c4F)nnc(C)c3cc21` (stereo partly drawn) [Compound 94, 8-[[(1R)-1-[3-(1,1-difluoro-2-hydroxy-ethyl)-2-fluoro-phenyl]ethyl]amino]-3-(methoxymethyl)-1,3,5-trimethyl-pyrrolo[3,2-g]phthalazin-2-one] was tested, and the IC50 was 8.91 nM.
`Cc1nnc(N[C@H](C)c2cccc(C(F)(F)CO)c2)c2cc3c(cc12)N(C)C(=O)C3(C)C` [Compound 95, 1,3,3,8-tetramethyl-5-[[(1R)-1-[3-(1,1-difluoro-2-hydroxy-ethyl)phenyl]ethyl]amino]pyrrolo [3,2-g]phthalazin-2-one] showed an IC50 of 7.41 nM.
For `Cc1nnc(N[C@H](C)c2cccc(C(F)(F)C(C)(C)O)c2)c2cc3c(cc12)N(C)C(=O)C3(C)C` [Compound 96, 1,3,3,8-tetramethyl-5-[[(1R)-1-[3-(1,1-difluoro-2-hydroxy-2-methyl-propyl)phenyl]ethyl]amino]pyrrolo [3,2-g]phthalazin-2-one], the IC50 was 13.5 nM.
For `Cc1c([C@@H](C)Nc2nnc(C)c3cc4c(cc23)C(C)(C)C(=O)N4C)cccc1C(F)(F)CO` [Compound 97, 1,3,3,8-tetramethyl-5-[[(1R)-1-[3-(1,1-difluoro-2-hydroxy-ethyl)-2-methyl-phenyl]ethyl]amino]pyrrolo[3,2-g]phthalazin-2-one], the IC50 was 13.2 nM.
Work on `Cc1nnc(N[C@H](C)c2cccc(C(F)(F)C(C)(C)O)c2F)c2cc3c(cc12)N(C)C(=O)C3(C)C` [Compound 98, 1,3,3,8-tetramethyl-5-[[(1R)-1-[3-(1,1-difluoro-2-hydroxy-2-methyl-propyl)-2-fluoro-phenyl]ethyl]amino]pyrrolo[3,2-g]phthalazin-2-one] yielded an IC50 of 12 nM.
For `Cc1nnc(N[C@H](C)c2cccc(C(F)(F)CO)c2F)c2cc3c(cc12)N(C)C(=O)C3(C)C` [Compound 99, 1,3,3,8-tetramethyl-5-[[(1R)-1-[3-(1,1-difluoro-2-hydroxy-ethyl)-2-fluoro-phenyl]ethyl]amino]pyrrolo[3,2-g]phthalazin-2-one], the IC50 was 8.13 nM.
`Cc1c([C@@H](C)Nc2nnc(C)c3cc4c(cc23)n(C(C)(C)C)c(=O)n4C)cccc1C(F)(F)CO` [Compound 100, 3-tert-butyl-1,8-dimethyl-5-[[(1R)-1-[3-(1,1-difluoro-2-hydroxy-ethyl)-2-methyl-phenyl]ethyl]amino]imidazo[4,5-g]phthalazin-2-one] showed an IC50 of 10 nM.
With `COC1(C)C(=O)N(C)c2cc3c(N[C@H](C)c4cccc(C(F)(F)CO)c4)nnc(C)c3cc21` (stereo partly drawn) [Compound 101, 3-methoxy-1,3,5-trimethyl-8-[[(1R)-1-[3-(1,1-difluoro-2-hydroxy-ethyl)phenyl]ethyl]amino]pyrrolo [2,3-g]phthalazin-2-one] the IC50 was 10 nM.
`COC1(C)C(=O)N(C)c2cc3c(N[C@H](C)c4cccc(C(F)(F)C(C)(C)O)c4C)nnc(C)c3cc21` (stereo partly drawn) [Compound 102, 3-methoxy-1,3,5-trimethyl-8-[[(1R)-1-[3-(1,1-difluoro-2-hydroxy-2-methyl-propyl)-2-methyl-phenyl]ethyl]amino]pyrrolo[2,3-g]phthalazin-2-one] showed an IC50 of 8.32 nM.
Compound `Cc1nnc(N[C@H](C)c2cccc(C(F)(F)C(C)(C)O)c2)c2cc3c(cc12)n(C)c(=O)n3C(C)(C)C` [Compound 103, 3-tert-butyl-1,8-dimethyl-5-[[(1R)-1-[3-(1,1-difluoro-2-hydroxy-2-methyl-propyl)phenyl]ethyl]amino]imidazo [4,5-g]phthalazin-2-one] has an IC50 of 7.94 nM.
`Cc1c([C@@H](C)Nc2nnc(C)c3cc4c(cc23)N(C)C(=O)C42CCOCC2)cccc1C(F)(F)C(C)(C)O` [Compound 104, 1,5-dimethyl-8-[[(1R)-1-[3-(1,1-difluoro-2-hydroxy-2-methyl-propyl)-2-methyl-phenyl]ethyl]amino]spiro[pyrrolo[2,3-g]phthalazine-3,4′-tetrahydropyran]-2-one] was tested, and the IC50 was 24.5 nM.
Work on `COCC1(C)C(=O)N(C)c2cc3c(N[C@H](C)c4cccc(C(F)(F)CO)c4C)nnc(C)c3cc21` (stereo partly drawn) [Compound 105, 8-[[(1R)-1-[3-(1,1-difluoro-2-hydroxy-ethyl)-2-methyl-phenyl]ethyl]amino]-3-(methoxymethyl)-1,3,5-trimethyl-pyrrolo[3,2-g]phthalazin-2-one] yielded an IC50 of 10.7 nM.
In the case of `COCC1(C)C(=O)N(C)c2cc3c(N[C@H](C)c4cccc(C(F)(F)CO)c4)nnc(C)c3cc21` (stereo partly drawn) [Compound 106, 8-[[(1R)-1-[3-(1,1-difluoro-2-hydroxy-ethyl)phenyl]ethyl]amino]-3-(methoxymethyl)-1,3,5-trimethyl-pyrrolo[3,2-g]phthalazin-2-one], the IC50 is reported as 12 nM.
`Cc1nnc(N[C@H](C)c2cc(F)cc(C(F)(F)CO)c2)c2cc3c(cc12)C(C)(C)C(=O)N3C` [Compound 107, 1,3,3,5-tetramethyl-8-[[(1R)-1-[3-(1,1-difluoro-2-hydroxy-ethyl)-5-fluoro-phenyl]ethyl]amino]pyrrolo[2,3-g]phthalazin-2-one] gave an IC50 of 18.6 nM.
